≈ marks a conversion by molar mass, not a printed value. Counter-ions that a name gives are not always drawn.
Columns and labels:
[1] = tested on: Ps. maltophilia, IID-1275; experiment: Antibacterial activity (MIC), standard method of the Japan Society of Chemotherapy; type: cell-based; settings: Stenotrophomonas maltophilia, IID1275
Protocol: (§1) Antibacterial activities of the compounds of this invention were measured in accordance to the standard method designated by the Japan Society of Chemotherapy, with the results shown as MIC values (microgram/ml) units in the following table. For comparison with the MIC values of the compounds of this invention, MIC values of levofloxacin (LVFX), ciprofloxacin (CPFX) and 7-[3-(R)-(1-aminocyclopropyl)pyrrolidin-1-yl]-6-fluoro-1-[2-(S)-fluoro-1-(R)-cyclopropyl]-8-methyl-1,4-dihydro-4-oxoquinoline-3-carboxylic acid (Reference drug 1), which is described in PCT/JP96/00208, are also shown in the table.

E. coli, NIHJ = experiment: as above; type: cell-based; settings: Escherichia coli
Protocol: as §1

[2] = tested on: Str. faecalis, ATCC 19433; experiment: as above; type: cell-based; settings: Enterococcus faecalis, ATCC19433
Protocol: as §1

K. pneumoniae, Type 1 = experiment: as above; type: cell-based; settings: Klebsiella pneumoniae, TYPE1
Protocol: as §1

S. epidermidis, 56500 = experiment: as above; type: cell-based; settings: Staphylococcus epidermidis
Protocol: as §1

Str. pyogenes, G-36 = experiment: as above; type: cell-based; settings: Streptococcus pyogenes, G36
Protocol: as §1

Ps. aeruginosa, 32104 = experiment: as above; type: cell-based; settings: Pseudomonas aeruginosa
Protocol: as §1

Pr. vulgalis, 08601 = experiment: as above; type: cell-based
Protocol: as §1

Ser. marcescens, 10100 = experiment: as above; type: cell-based; settings: Serratia marcescens
Protocol: as §1

Str. pneumoniae J24 = experiment: as above; type: cell-based; settings: Streptococcus pneumoniae
Protocol: as §1

Ps. aeruginosa, 32121 = experiment: as above; type: cell-based; settings: Pseudomonas aeruginosa
Protocol: as §1

S. aureus, 870307 = experiment: as above; type: cell-based; settings: Staphylococcus aureus
Protocol: as §1

S. flexneri, 2A 5503 = experiment: as above; type: cell-based; settings: Shigella flexneri, 2A5503
Protocol: as §1

S. aureus, 209P = experiment: as above; type: cell-based; settings: Staphylococcus aureus
Protocol: as §1

Structure (SMILES)	melting point	MIC [1]	MIC (E. coli, NIHJ)	MIC [2]	MIC (K. pneumoniae, Type 1)	MIC (S. epidermidis, 56500)	MIC (Str. pyogenes, G-36)	MIC (Ps. aeruginosa, 32104)	MIC (Pr. vulgalis, 08601)	MIC (Ser. marcescens, 10100)	MIC (Str. pneumoniae J24)	MIC (Ps. aeruginosa, 32121)	MIC (S. aureus, 870307)	MIC (S. flexneri, 2A 5503)	MIC (S. aureus, 209P)
Cc1c(N2CC[C@@H](C3(N)CC3)C2)ccc2c(=O)c(C(=O)O)cn([C@@H]3C[C@@H]3F)c12 (as salt: HCl) (hydrate or solvate) [Example 1, 7-[3-(R)-(1-aminocyclopropyl)pyrrolidin-1-yl]-1-[2-(S)-fluoro-1-(R)-cyclopropyl]-1,4-dihydro-8-methyl-4-oxoquinoline-3-carboxylic acid]	228 to 230 °C	–	–	–	–	–	–	–	–	–	–	–	–	–	–
O=C(O)c1cn(C2CC2)c2cc(N3CCNCC3)c(F)cc2c1=O [CPFX, ciprofloxacin, reference compound]	–	0.78 µg/mL (≈ 2.35 µM)	≤ 3 ng/mL	0.78 µg/mL (≈ 2.35 µM)	0.025 µg/mL (≈ 0.0754 µM)	0.2 µg/mL (≈ 0.604 µM)	1.56 µg/mL (≈ 4.71 µM)	0.005 µg/mL (≈ 0.0151 µM)	≤ 0.003 µg/mL	0.025 µg/mL (≈ 0.0754 µM)	100 ng/mL (≈ 0.302 µM)	0.025 µg/mL (≈ 0.0754 µM)	3.13 µg/mL (≈ 9.45 µM)	0.006 µg/mL (≈ 0.0181 µM)	0.1 µg/mL (≈ 0.302 µM)
COc1c(N2CC[C@@H](C3(N)CC3)C2)ccc2c(=O)c(C(=O)O)cn([C@@H]3C[C@@H]3F)c12 [Example 2, 7-[3-(R)-(1-aminocyclopropyl)pyrrolidin-1-yl]-1-[2-(S)-fluoro-1-(R)-cyclopropyl]-1,4-dihydro-8-methoxy-4-oxoquinoline-3-carboxylic acid]	–	0.2 µg/mL (≈ 0.498 µM)	≤ 3 ng/mL	0.025 µg/mL (≈ 0.0623 µM)	0.05 µg/mL (≈ 0.125 µM)	0.012 µg/mL (≈ 0.0299 µM)	0.006 µg/mL (≈ 0.0149 µM)	0.2 µg/mL (≈ 0.498 µM)	0.012 µg/mL (≈ 0.0299 µM)	0.1 µg/mL (≈ 0.249 µM)	6 ng/mL (≈ 0.0149 µM)	0.05 µg/mL (≈ 0.125 µM)	0.05 µg/mL (≈ 0.125 µM)	0.012 µg/mL (≈ 0.0299 µM)	≤ 0.003 µg/mL
Cc1c(N2CC[C@@H](C3(N)CC3)C2)ccc2c(=O)c(C(=O)O)cn(C3CC3)c12 [Example 3, 7-[3-(R)-(1-aminocyclopropyl)pyrrolidin-1-yl]-1-cyclopropyl-1,4-dihydro-8-methyl-4-oxoquinoline-3-carboxylic acid]	230 to 233 °C	0.05 µg/mL (≈ 0.136 µM)	≤ 3 ng/mL	0.012 µg/mL (≈ 0.0327 µM)	0.012 µg/mL (≈ 0.0327 µM)	0.003 µg/mL (≈ 0.00816 µM)	0.003 µg/mL (≈ 0.00816 µM)	0.05 µg/mL (≈ 0.136 µM)	≤ 0.003 µg/mL	0.025 µg/mL (≈ 0.068 µM)	≤ 3 ng/mL	0.025 µg/mL (≈ 0.068 µM)	0.025 µg/mL (≈ 0.068 µM)	≤ 0.003 µg/mL	≤ 0.003 µg/mL
NC1([C@@H]2CCN(c3ccc4c(=O)c(C(=O)O)cn([C@@H]5C[C@@H]5F)c4n3)C2)CC1 [Example 4, 7-[3-(R)-(1-aminocyclopropyl)pyrrolidin-1-yl]-1-[2-(S)-fluoro-1-(R)-cyclopropyl]-1,4-dihydro-4-oxo-1,8-naphthylidine-3-carboxylic acid]	216 to 218 °C	–	–	–	–	–	–	–	–	–	–	–	–	–	–
CNC1([C@@H]2CCN(c3ccc4c(=O)c(C(=O)O)cn([C@@H]5C[C@@H]5F)c4c3C)C2)CC1 [Example 10, 1-[2-(S)-fluoro-1-(R)-cyclopropyl]-8-methyl-7-[3-(R)-[1-(methylamino)cyclopropyl]pyrrolidin-1-yl]-1,4-dihydro-4-oxoquinoline-3-carboxylic acid]	223 to 224 °C	0.1 µg/mL (≈ 0.25 µM)	≤ 3 ng/mL	0.012 µg/mL (≈ 0.03 µM)	0.025 µg/mL (≈ 0.0626 µM)	0.006 µg/mL (≈ 0.015 µM)	≤ 0.003 µg/mL	0.1 µg/mL (≈ 0.25 µM)	0.006 µg/mL (≈ 0.015 µM)	0.05 µg/mL (≈ 0.125 µM)	≤ 3 ng/mL	0.025 µg/mL (≈ 0.0626 µM)	0.025 µg/mL (≈ 0.0626 µM)	0.006 µg/mL (≈ 0.015 µM)	≤ 0.003 µg/mL
CNC1([C@@H]2CCN(c3ccc4c(=O)c(C(=O)O)cn([C@@H]5C[C@@H]5F)c4c3OC)C2)CC1 [Example 11, 1-[2-(S)-fluoro-1-(R)-cyclopropyl]-8-methoxy-7-[3-(R)-[1-(methylamino)cyclopropyl]pyrrolidin-1-yl]-1,4-dihydro-4-oxoquinoline-3-carboxylic acid]	213 to 215 °C	0.2 µg/mL (≈ 0.481 µM)	6 ng/mL (≈ 0.0144 µM)	0.05 µg/mL (≈ 0.12 µM)	0.1 µg/mL (≈ 0.241 µM)	0.012 µg/mL (≈ 0.0289 µM)	0.012 µg/mL (≈ 0.0289 µM)	0.2 µg/mL (≈ 0.481 µM)	0.012 µg/mL (≈ 0.0289 µM)	0.2 µg/mL (≈ 0.481 µM)	6 ng/mL (≈ 0.0144 µM)	0.1 µg/mL (≈ 0.241 µM)	0.05 µg/mL (≈ 0.12 µM)	0.012 µg/mL (≈ 0.0289 µM)	≤ 0.003 µg/mL
C[C@H]1COc2c(N3CCN(C)CC3)c(F)cc3c(=O)c(C(=O)O)cn1c23 [LVFX, levofloxacin, reference compound]	–	0.39 µg/mL (≈ 1.08 µM)	12 ng/mL (≈ 0.0332 µM)	0.78 µg/mL (≈ 2.16 µM)	0.1 µg/mL (≈ 0.277 µM)	0.39 µg/mL (≈ 1.08 µM)	0.2 µg/mL (≈ 0.553 µM)	0.2 µg/mL (≈ 0.553 µM)	0.012 µg/mL (≈ 0.0332 µM)	0.1 µg/mL (≈ 0.277 µM)	780 ng/mL (≈ 2.16 µM)	0.1 µg/mL (≈ 0.277 µM)	> 6.25 µg/mL	0.025 µg/mL (≈ 0.0692 µM)	0.2 µg/mL (≈ 0.553 µM)

The next lines start with results.

melting point	Structure (SMILES)	MIC [1]	MIC (E. coli, NIHJ)	MIC [2]	MIC (K. pneumoniae, Type 1)	MIC (S. epidermidis, 56500)	MIC (Str. pyogenes, G-36)	MIC (Ps. aeruginosa, 32104)	MIC (Pr. vulgalis, 08601)	MIC (Ser. marcescens, 10100)	MIC (Str. pneumoniae J24)	MIC (Ps. aeruginosa, 32121)	MIC (S. aureus, 870307)	MIC (S. flexneri, 2A 5503)	MIC (S. aureus, 209P)
249 to 252 °C (dec.)	C[C@H]1COc2c(N3CC[C@@H](C4(N)CC4)C3)ccc3c(=O)c(C(=O)O)cn1c23 (as salt: salt) [Example 9, 10-[3-(R)-(1-aminocyclopropyl)pyrrolidin-1-yl]-2,3-dihydro-3-(S)-methyl-7-oxo-7H-pyrido[1,2,3-de][1,4]benzoxazine-6-carboxylic acid]	–	–	–	–	–	–	–	–	–	–	–	–	–	–
174 °C	COc1c(N2CC[C@@H](C3(N)CCC3)C2)ccc2c(=O)c(C(=O)O)cn([C@@H]3C[C@@H]3F)c12 (hydrate or solvate) [Example 19, 7-[3-(R)-(1-aminocyclobutyl)pyrrolidin-1-yl]-1-[2-(S)-fluoro-1-(R)-cyclopropyl]-8-methoxy-1,4-dihydro-4-oxoquinoline-3-carboxylic acid]	–	–	–	–	–	–	–	–	–	–	–	–	–	–
251 to 253 °C	NC1([C@@H]2CCN(c3ccc4c(=O)c(C(=O)O)cn([C@@H]5C[C@@H]5F)c4c3)C2)CC1 [Example 5, 7-[3-(R)-(1-aminocyclopropyl)pyrrolidin-1-yl]-1-[2-(S)-fluoro-1-(R)-cyclopropyl]-1,4-dihydro-4-oxoquinoline-3-carboxylic acid]	–	–	–	–	–	–	–	–	–	–	–	–	–	–
206 to 207.5 °C	NC1([C@@H]2CCN(c3ccc4c(=O)c(C(=O)O)cn(C5CC5)c4c3OC(F)F)C2)CC1 [Example 6, 7-[3-(R)-(1-aminocyclopropyl)pyrrolidin-1-yl]-1-cyclopropyl-8-difluoromethoxy-1,4-dihydro-4-oxoquinoline-3-carboxylic acid]	–	–	–	–	–	–	–	–	–	–	–	–	–	–
240 to 242 °C (dec.)	Cc1c(N2CC[C@@H](C3(N)CC3)C2)cc(N)c2c(=O)c(C(=O)O)cn([C@@H]3C[C@@H]3F)c12 [Example 7, 5-amino-7-[3-(R)-(1-aminocyclopropyl)pyrrolidin-1-yl]-1-[2-(S)-fluoro-1-(R)-cyclopropyl]-1,4-dihydro-8-methyl-4-oxoquinoline-3-carboxylic acid]	–	–	–	–	–	–	–	–	–	–	–	–	–	–
172 to 178 °C (dec.)	COc1c(N2CC[C@@H](C3(N)CC3)C2)cc(N)c2c(=O)c(C(=O)O)cn([C@@H]3C[C@@H]3F)c12 [Example 8, 5-amino-7-[3-(R)-(1-aminocyclopropyl)pyrrolidin-1-yl]-1-[2-(S)-fluoro-1-(R)-cyclopropyl]-1,4-dihydro-8-methoxy-4-oxoquinoline-3-carboxylic acid]	–	–	–	–	–	–	–	–	–	–	–	–	–	–
227 to 229 °C	CNC1([C@@H]2CCN(c3ccc4c(=O)c(C(=O)O)cn5c4c3OC[C@@H]5C)C2)CC1 [Example 13, 2,3-dihydro-3-(S)-methyl-10-[3-(R)-[1-(methylamino)cyclopropyl]pyrrolidin-1-yl]-7-oxo-7H-pyrido[1,2,3-de][1,4]benzoxazine-6-carboxylic acid]	–	–	–	–	–	–	–	–	–	–	–	–	–	–
128 to 130 °C	NC1([C@@H]2CCN(c3ccc4c(=O)c(C(=O)O)cn([C@@H]5C[C@@H]5F)c4c3Cl)C2)CC1 [Example 16, 7-[3-(R)-(1-aminocyclopropyl)pyrrolidin-1-yl]-8-chloro-1-[2-(S)-fluoro-1-(R)-cyclopropyl]-1,4-dihydro-4-oxoquinoline-3-carboxylic acid]	–	–	–	–	–	–	–	–	–	–	–	–	–	–
203 to 206 °C	Cc1c(N2CC[C@@H](C3(N)CC3)C2)cc(O)c2c(=O)c(C(=O)O)cn([C@@H]3C[C@@H]3F)c12 [Example 17, 7-[3-(R)-(1-aminocyclopropyl)pyrrolidin-1-yl]-1-[2-(S)-fluoro-1-(R)-cyclopropyl]-5-hydroxy-8-methyl-1,4-dihydro-4-oxoquinoline-3-carboxylic acid]	–	–	–	–	–	–	–	–	–	–	–	–	–	–
138 to 140 °C	N#Cc1c(N2CC[C@@H](C3(N)CC3)C2)ccc2c(=O)c(C(=O)O)cn([C@@H]3C[C@@H]3F)c12 [Example 18, 7-[3-(R)-(1-aminocyclopropyl)pyrrolidin-1-yl]-8-cyano-1-[2-(S)-fluoro-1-(R)-cyclopropyl]-1,4-dihydro-4-oxoquinoline-3-carboxylic acid]	–	–	–	–	–	–	–	–	–	–	–	–	–	–

From patent US7902226B2, “Dehalogeno-compounds” (Daiichi Pharmaceutical Co., Ltd., priority 2000, dated 2011)
